The record followed here is PMC4051630, “A Comparison of Protein Kinases Inhibitor Screening Methods Using Both Enzymatic Activity and Binding Affinity Determination” (PLoS ONE, 2014).

Like-named read-outs stand apart in the source and are kept apart here.

Holding throughout (test): Differential Scanning Fluorimetry (DSF) Tm shift
Format in all cases: binding
Background: Differential scanning fluorimetry follows unfolding on heating by fluorescence.

One test addresses T1, AKT3 Catalytic Domain (Homo sapiens, UniProt Q9Y243).
T1 construct: AKT3 (Q9Y243); CD; His-tag; made in house; host or cells: Escherichia coli
Particulars: 2 µM protein, 10 µM inhibitor, average of 3 experiments, each in duplicate.

The target in a further test is T2, CDK2 + Cyclin A (Homo sapiens, UniProt P24941).
T2 construct: CDK2 (P24941); 1–299; His-tag; made in house; host or cells: Escherichia coli

For the next test, the target named is T3, CDK2 + Cyclin E (Homo sapiens, UniProt P24941).
T3 construct: CDK2 (P24941); 1–299; His-tag; made in house; host or cells: Escherichia coli

In another test the target is T4, CHK2 Catalytic Domain (Homo sapiens, UniProt O96017).
T4 construct: For all of them, we expressed and purified the catalytic domain separately; His-tag; made in house; host or cells: Escherichia coli
T4 sequence (O96017 220-486 limits assumed): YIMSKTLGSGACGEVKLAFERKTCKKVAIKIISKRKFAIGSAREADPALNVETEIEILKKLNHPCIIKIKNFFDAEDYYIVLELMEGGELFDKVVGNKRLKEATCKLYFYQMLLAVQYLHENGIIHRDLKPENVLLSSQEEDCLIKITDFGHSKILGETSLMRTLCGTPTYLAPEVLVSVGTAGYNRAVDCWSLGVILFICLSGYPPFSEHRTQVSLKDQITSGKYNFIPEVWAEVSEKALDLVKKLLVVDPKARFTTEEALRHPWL
Conditions: 2 µM protein, 10 µM inhibitor, average of 3 experiments, each in duplicate.

In another test the target is T5, DMPK Catalytic Domain (Homo sapiens, UniProt Q09013).
T5 construct: For all of them, we expressed and purified the catalytic domain separately; His-tag; made in house; host or cells: Escherichia coli
T5 sequence (Q09013 71-339 limits assumed): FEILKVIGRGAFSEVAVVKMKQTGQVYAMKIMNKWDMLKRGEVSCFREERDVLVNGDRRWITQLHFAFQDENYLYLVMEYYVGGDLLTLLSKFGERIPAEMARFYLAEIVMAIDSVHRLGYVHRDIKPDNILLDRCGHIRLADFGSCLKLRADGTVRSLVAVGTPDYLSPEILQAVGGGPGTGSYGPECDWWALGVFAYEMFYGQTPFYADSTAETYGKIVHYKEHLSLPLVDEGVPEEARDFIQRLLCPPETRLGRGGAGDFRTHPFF
Particulars: 2 µM protein, 10 µM inhibitor, average of 3 experiments, each in duplicate.

The target of another test is T6, FAK2 Catalytic Domain (Homo sapiens, UniProt Q14289).
T6 construct: For all of them, we expressed and purified the catalytic domain separately; His-tag; made in house; host or cells: Escherichia coli
T6 sequence (Q14289 425-683 limits assumed): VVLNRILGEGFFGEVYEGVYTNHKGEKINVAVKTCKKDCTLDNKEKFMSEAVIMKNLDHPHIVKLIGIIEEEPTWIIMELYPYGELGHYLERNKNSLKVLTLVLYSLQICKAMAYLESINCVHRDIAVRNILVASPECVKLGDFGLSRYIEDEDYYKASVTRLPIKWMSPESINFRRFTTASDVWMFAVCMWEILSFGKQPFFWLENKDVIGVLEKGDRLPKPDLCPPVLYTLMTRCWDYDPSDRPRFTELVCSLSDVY
Conditions: 2 µM protein, 10 µM inhibitor, average of 3 experiments, each in duplicate.

A further test deals with T7, FES Catalytic Domain+SH2 (Homo sapiens, UniProt P07332).
T7 construct: for 8, we also made a longer version containing one or more additional domains; His-tag; made in house; host or cells: Escherichia coli
T7 sequence (P07332 448-822 limits assumed): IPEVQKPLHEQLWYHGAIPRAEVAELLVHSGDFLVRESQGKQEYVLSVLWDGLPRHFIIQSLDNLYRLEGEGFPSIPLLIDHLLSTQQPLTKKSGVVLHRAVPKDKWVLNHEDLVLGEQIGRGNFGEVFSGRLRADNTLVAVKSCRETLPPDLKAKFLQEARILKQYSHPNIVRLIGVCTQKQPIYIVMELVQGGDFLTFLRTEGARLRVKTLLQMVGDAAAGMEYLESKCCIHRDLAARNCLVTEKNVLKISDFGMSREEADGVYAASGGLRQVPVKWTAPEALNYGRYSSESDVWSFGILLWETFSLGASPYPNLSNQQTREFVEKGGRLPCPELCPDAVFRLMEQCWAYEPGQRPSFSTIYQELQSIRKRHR
Conditions: 2 µM protein, 10 µM inhibitor, average of 3 experiments, each in duplicate.

The target of another test is T8, FES Catalytic Domain (Homo sapiens, UniProt P07332).
T8 construct: For all of them, we expressed and purified the catalytic domain separately; His-tag; made in house; host or cells: Escherichia coli
T8 sequence (P07332 561-822 limits assumed): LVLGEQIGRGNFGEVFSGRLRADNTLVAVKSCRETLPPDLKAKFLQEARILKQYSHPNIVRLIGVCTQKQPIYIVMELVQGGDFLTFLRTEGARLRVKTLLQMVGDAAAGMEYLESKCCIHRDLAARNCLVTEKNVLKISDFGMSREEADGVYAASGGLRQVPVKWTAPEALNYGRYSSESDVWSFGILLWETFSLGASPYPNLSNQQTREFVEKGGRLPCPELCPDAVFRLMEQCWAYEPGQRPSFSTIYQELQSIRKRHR
Particulars: 2 µM protein, 10 µM inhibitor, average of 3 experiments, each in duplicate.

The target in test [1] is T9, PAK4 Catalytic Domain+PBD (Homo sapiens, UniProt O96013).
T9 construct: for 8, we also made a longer version containing one or more additional domains; His-tag; made in house; host or cells: Escherichia coli
T9 sequence (O96013 whole entry, the tested form may be a part): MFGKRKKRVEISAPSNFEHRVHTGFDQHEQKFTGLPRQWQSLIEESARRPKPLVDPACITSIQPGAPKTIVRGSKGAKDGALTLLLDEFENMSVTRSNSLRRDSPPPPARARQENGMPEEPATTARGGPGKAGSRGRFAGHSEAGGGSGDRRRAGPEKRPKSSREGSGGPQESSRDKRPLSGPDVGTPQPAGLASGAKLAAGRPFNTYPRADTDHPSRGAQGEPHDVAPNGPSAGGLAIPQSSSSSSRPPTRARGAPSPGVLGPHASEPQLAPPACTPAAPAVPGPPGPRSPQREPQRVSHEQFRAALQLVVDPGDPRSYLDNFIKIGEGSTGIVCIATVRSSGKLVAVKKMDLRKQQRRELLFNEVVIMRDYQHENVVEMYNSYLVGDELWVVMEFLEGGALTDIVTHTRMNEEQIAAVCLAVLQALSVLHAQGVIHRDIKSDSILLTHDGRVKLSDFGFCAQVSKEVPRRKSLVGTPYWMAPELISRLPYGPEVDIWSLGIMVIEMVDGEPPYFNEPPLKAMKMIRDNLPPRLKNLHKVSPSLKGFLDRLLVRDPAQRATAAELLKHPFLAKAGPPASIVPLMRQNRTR
Conditions: 2 µM protein, 10 µM inhibitor, average of 3 experiments, each in duplicate.

The next test concerns the target T10, PAK4 Catalytic Domain (Homo sapiens, UniProt O96013).
T10 construct: For all of them, we expressed and purified the catalytic domain separately; His-tag; made in house; host or cells: Escherichia coli
Particulars: 2 µM protein, 10 µM inhibitor, average of 3 experiments, each in duplicate.

Another test has as its target T11, PAK7 Catalytic Domain (Homo sapiens, UniProt Q9P286).
T11 construct: For all of them, we expressed and purified the catalytic domain separately; His-tag; made in house; host or cells: Escherichia coli
Conditions: 2 µM protein, 10 µM inhibitor, average of 3 experiments, each in duplicate.

The target of test [2] is SRC Catalytic Domain+SH2+SH3 (Homo sapiens, UniProt P12931). Particulars: 2 µM protein, 10 µM inhibitor, average of 3 experiments, each in duplicate.
Chain of SRC Catalytic Domain+SH2+SH3 (P12931 84-523 limits assumed): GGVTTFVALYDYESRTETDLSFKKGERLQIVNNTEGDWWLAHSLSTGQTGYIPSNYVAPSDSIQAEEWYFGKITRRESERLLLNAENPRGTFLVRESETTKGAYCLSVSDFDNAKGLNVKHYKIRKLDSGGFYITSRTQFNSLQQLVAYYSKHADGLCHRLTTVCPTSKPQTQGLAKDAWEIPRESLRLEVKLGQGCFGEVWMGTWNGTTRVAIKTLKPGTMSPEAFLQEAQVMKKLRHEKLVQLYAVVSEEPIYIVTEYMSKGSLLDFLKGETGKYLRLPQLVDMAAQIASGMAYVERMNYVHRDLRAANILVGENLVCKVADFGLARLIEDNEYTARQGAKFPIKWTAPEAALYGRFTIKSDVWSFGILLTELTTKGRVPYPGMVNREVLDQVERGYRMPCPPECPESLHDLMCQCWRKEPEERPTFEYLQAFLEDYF
The target in test [3] is T12, STK3 Catalytic domain+SARAH (Homo sapiens, UniProt Q13188).
T12 construct: for 8, we also made a longer version containing one or more additional domains; His-tag; made in house; host or cells: Escherichia coli
T12 sequence (Q13188 1-491): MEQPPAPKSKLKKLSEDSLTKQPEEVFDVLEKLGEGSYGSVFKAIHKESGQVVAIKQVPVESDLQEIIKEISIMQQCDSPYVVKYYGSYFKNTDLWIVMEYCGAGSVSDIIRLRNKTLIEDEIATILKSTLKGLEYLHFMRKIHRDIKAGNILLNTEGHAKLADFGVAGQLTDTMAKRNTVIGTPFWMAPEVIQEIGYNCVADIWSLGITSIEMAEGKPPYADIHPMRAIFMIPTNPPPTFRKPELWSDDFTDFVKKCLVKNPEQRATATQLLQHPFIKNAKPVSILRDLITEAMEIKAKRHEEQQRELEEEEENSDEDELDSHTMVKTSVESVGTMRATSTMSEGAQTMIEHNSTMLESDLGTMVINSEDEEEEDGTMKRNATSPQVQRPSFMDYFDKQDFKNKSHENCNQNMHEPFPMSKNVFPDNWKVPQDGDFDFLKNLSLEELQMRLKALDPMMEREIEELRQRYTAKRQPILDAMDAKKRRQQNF
Conditions: 2 µM protein, 10 µM inhibitor, average of 3 experiments, each in duplicate.

Another test has as its target T13, STK3 Catalytic Domain (Homo sapiens, UniProt Q13188).
T13 construct: For all of them, we expressed and purified the catalytic domain separately; His-tag; made in house; host or cells: Escherichia coli
T13 sequence (Q13188 27-278 limits assumed): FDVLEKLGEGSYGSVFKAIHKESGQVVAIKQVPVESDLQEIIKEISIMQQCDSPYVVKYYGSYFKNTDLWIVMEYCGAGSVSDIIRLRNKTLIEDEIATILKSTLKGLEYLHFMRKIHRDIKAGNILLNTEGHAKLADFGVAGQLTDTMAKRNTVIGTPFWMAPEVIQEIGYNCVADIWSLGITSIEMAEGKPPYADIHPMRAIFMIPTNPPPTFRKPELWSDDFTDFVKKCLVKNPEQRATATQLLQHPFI
Particulars: 2 µM protein, 10 µM inhibitor, average of 3 experiments, each in duplicate.

For a further test, the target named is SRC Catalytic Domain (Homo sapiens, UniProt P12931). Further details: For all of them, we expressed and purified the catalytic domain separately; His-tag; made in house; host or cells: Escherichia coli. Conditions: 2 µM protein, 10 µM inhibitor, average of 3 experiments, each in duplicate.
Chain of SRC Catalytic Domain (P12931 270-523 limits assumed): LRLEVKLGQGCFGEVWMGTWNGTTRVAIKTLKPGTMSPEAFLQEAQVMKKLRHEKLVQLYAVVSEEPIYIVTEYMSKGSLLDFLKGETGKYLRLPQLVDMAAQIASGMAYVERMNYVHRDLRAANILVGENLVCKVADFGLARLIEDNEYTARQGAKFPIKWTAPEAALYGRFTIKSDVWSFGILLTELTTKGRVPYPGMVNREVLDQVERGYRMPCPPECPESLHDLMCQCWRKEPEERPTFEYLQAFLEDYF
Where [4] appears, read: CDK2 + Cyclin A, 2 µM protein, 10 µM inhibitor, average of 3 experiments, each in duplicate.
Setting [5] is: CDK2 + Cyclin E, 2 µM protein, 10 µM inhibitor, average of 3 experiments, each in duplicate.

T1 sequence (Q9Y243 122-479): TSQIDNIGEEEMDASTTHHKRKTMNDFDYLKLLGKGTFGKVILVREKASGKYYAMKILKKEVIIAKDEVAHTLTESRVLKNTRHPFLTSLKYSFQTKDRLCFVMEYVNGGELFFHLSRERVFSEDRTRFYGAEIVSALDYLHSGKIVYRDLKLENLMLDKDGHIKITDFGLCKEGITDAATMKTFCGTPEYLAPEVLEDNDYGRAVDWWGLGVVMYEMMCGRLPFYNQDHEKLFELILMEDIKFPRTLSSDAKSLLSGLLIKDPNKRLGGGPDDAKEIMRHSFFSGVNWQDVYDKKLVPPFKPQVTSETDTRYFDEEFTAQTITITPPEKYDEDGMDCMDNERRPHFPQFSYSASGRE
T10 sequence (O96013 321-572 limits assumed): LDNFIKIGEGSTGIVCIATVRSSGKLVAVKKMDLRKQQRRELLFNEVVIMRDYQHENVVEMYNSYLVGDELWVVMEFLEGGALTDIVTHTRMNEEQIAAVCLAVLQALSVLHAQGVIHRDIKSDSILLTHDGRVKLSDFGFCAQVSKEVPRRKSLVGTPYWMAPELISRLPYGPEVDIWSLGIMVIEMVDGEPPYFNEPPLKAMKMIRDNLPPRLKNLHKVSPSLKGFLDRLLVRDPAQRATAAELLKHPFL
T11 sequence (Q9P286 449-700 limits assumed): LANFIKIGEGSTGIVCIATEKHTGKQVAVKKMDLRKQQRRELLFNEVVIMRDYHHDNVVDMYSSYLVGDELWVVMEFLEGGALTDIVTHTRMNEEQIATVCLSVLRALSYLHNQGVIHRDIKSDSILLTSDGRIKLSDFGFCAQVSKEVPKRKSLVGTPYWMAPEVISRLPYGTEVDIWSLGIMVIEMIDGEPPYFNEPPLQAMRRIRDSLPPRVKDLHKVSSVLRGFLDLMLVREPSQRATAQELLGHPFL

For the molecule `Cc1[nH]c(/C=C2\C(=O)Nc3ccc(S(=O)(=O)N(C)c4cccc(Cl)c4)cc32)c(C)c1C(=O)N1CCN(C)CC1` [Met Kinase Inhibitor], the “Melting temperature (Tm) shift” value at AKT3 Catalytic Domain is 0.0 degrees Celcius; on CDK2 + Cyclin A, 0.4; at CDK2 + Cyclin E, 0.1; on CHK2 Catalytic Domain, 1.2 degrees Celcius; on DMPK Catalytic Domain it was 1.2 degrees Celcius; at FAK2 Catalytic Domain, 0.1 degrees Celcius. Besides, the “Melting temperature (Tm) shift” value worked out at 0.1 degrees Celcius at FES Catalytic Domain+SH2; 0.6 degrees Celcius on FES Catalytic Domain; 0.3 degrees Celcius in test [1]; 0.9 degrees Celcius on PAK4 Catalytic Domain; 0.2 degrees Celcius at PAK7 Catalytic Domain; 0.2 degrees Celcius in test [2]. For the same molecule, the “Melting temperature (Tm) shift” value is 0.9 degrees Celcius in test [3], 0.7 degrees Celcius at STK3 Catalytic Domain and 0.3 degrees Celcius at SRC Catalytic Domain.
`O=C(c1ccc(Nc2nccc(-c3cc4ccccc4s3)n2)cc1)N1CCC(N2CCCC2)CC1` [IKK Inhibitor VII]: the “Melting temperature (Tm) shift” value is 0.2 degrees Celcius on AKT3 Catalytic Domain; 0.7 degrees Celcius at CDK2 + Cyclin A (setting [4]); 0.5 degrees Celcius on CDK2 + Cyclin E (setting [5]); 1.9 degrees Celcius on CHK2 Catalytic Domain; 1.2 degrees Celcius on DMPK Catalytic Domain; 1.8 degrees Celcius on FAK2 Catalytic Domain. Also, the “Melting temperature (Tm) shift” value worked out at 1.4 degrees Celcius on FES Catalytic Domain+SH2; 3.3 degrees Celcius on FES Catalytic Domain; 0.5 degrees Celcius in test [1]; 1.7 degrees Celcius at PAK4 Catalytic Domain; 1.8 degrees Celcius at PAK7 Catalytic Domain; 0.5 degrees Celcius in [2]. Further, the “Melting temperature (Tm) shift” value is 1.2 degrees Celcius in test [3], 0.7 degrees Celcius at STK3 Catalytic Domain and 0.6 degrees Celcius at SRC Catalytic Domain.
As for `Cl.Cl.NCCNc1ncc(C(N)=O)c(Nc2cccc(C(F)(F)F)c2)n1` [Syk Inhibitor II], the “Melting temperature (Tm) shift” value was 0.0 degrees Celcius at AKT3 Catalytic Domain; 0.5 degrees Celcius on CDK2 + Cyclin A (setting [4]); 0.6 degrees Celcius at CDK2 + Cyclin E (setting [5]); 4.7 degrees Celcius on CHK2 Catalytic Domain; 0.7 degrees Celcius on DMPK Catalytic Domain; 1.9 degrees Celcius at FAK2 Catalytic Domain. Besides, the “Melting temperature (Tm) shift” value on FES Catalytic Domain+SH2 came out at 1.3 degrees Celcius; on FES Catalytic Domain, 3.1 degrees Celcius; in [1], 4.8 degrees Celcius; on PAK4 Catalytic Domain, 4.7 degrees Celcius; on PAK7 Catalytic Domain it was 5.1 degrees Celcius; in test [2], 0.4 degrees Celcius. The “Melting temperature (Tm) shift” value is on record as 1.3 degrees Celcius in test [3], 1.6 degrees Celcius at STK3 Catalytic Domain and 0.1 degrees Celcius on SRC Catalytic Domain.
As to `NC(=O)Nc1cc(-c2ccccc2)sc1C(N)=O` [IKK-2 Inhibitor XI], the “Melting temperature (Tm) shift” value is given as 0.0 degrees Celcius at AKT3 Catalytic Domain; 0.9 degrees Celcius on CDK2 + Cyclin A (setting [4]); 0.7 degrees Celcius at CDK2 + Cyclin E (setting [5]); 5.8 degrees Celcius on CHK2 Catalytic Domain; 1.6 degrees Celcius on DMPK Catalytic Domain; 1.5 degrees Celcius at FAK2 Catalytic Domain. The “Melting temperature (Tm) shift” value was determined as 1.1 degrees Celcius at FES Catalytic Domain+SH2; 2.1 degrees Celcius at FES Catalytic Domain; 2.9 degrees Celcius in [1]; 1.7 degrees Celcius on PAK4 Catalytic Domain; 1.3 degrees Celcius at PAK7 Catalytic Domain; 1.0 degrees Celcius in [2]. Besides, the “Melting temperature (Tm) shift” value in test [3] is listed as 1.4 degrees Celcius; at STK3 Catalytic Domain, 2.4 degrees Celcius; at SRC Catalytic Domain, 1.5 degrees Celcius.
With `N#CCCc1ccc2c(c1)-c1[nH]c3ccc([N+](=O)[O-])cc3c1CC(=O)N2` [Alsterpaullone, 2-Cyanoethyl], the “Melting temperature (Tm) shift” value on AKT3 Catalytic Domain came to 0.1 degrees Celcius; on CDK2 + Cyclin A (setting [4]), 0.5 degrees Celcius; on CDK2 + Cyclin E (setting [5]), 0.5 degrees Celcius; on CHK2 Catalytic Domain, 1.9 degrees Celcius; at DMPK Catalytic Domain it was 3.4 degrees Celcius; at FAK2 Catalytic Domain it was 0.6 degrees Celcius. Also, the “Melting temperature (Tm) shift” value at FES Catalytic Domain+SH2 stood at 0.3 degrees Celcius; at FES Catalytic Domain, 1.3 degrees Celcius; in [1], 0.3 degrees Celcius; at PAK4 Catalytic Domain it was 0.9 degrees Celcius; on PAK7 Catalytic Domain it was 1.3 degrees Celcius; in test [2] it was 0.3 degrees Celcius. Also, the figures for the “Melting temperature (Tm) shift” value (in test [3]; at STK3 Catalytic Domain; at SRC Catalytic Domain) were 1.5 degrees Celcius, 1.7 degrees Celcius and 0.2 degrees Celcius, respectively.
In the case of `Cn1cc(/C=C2\C(=O)Nc3ccc(S(N)(=O)=O)cc32)c2ccccc21` [Syk Inhibitor], the “Melting temperature (Tm) shift” value on AKT3 Catalytic Domain amounted to 0.0 degrees Celcius; at CDK2 + Cyclin A (setting [4]) it was 0.7 degrees Celcius; at CDK2 + Cyclin E (setting [5]), 0.4 degrees Celcius; on CHK2 Catalytic Domain, 5.2 degrees Celcius; at DMPK Catalytic Domain, 0.9 degrees Celcius; at FAK2 Catalytic Domain, 0.4 degrees Celcius. Further, the “Melting temperature (Tm) shift” value is on record as 0.4 degrees Celcius on FES Catalytic Domain+SH2; 2.0 degrees Celcius at FES Catalytic Domain; 2.2 degrees Celcius in test [1]; 1.7 degrees Celcius at PAK4 Catalytic Domain; 0.9 degrees Celcius at PAK7 Catalytic Domain; 0.2 degrees Celcius in test [2]. The figures for the “Melting temperature (Tm) shift” value (in [3]; at STK3 Catalytic Domain; at SRC Catalytic Domain) were 2.0 degrees Celcius, 2.0 degrees Celcius and 0.1 degrees Celcius, respectively.
